Test results taken from the NIST ThermoML archive (doi:10.1021/je8004408).
Numbers after ± are expanded uncertainties.

Key:
[1] = DTA
[2] = Molar enthalpy of transition or fusion; conditions: DSC
[3] = molar enthalpy of vaporization or sublimation; conditions: 298.15 K, Drop Microcalorimetry

Row | Compound | Normal melting temperature ([1]; Crystal 1) | Triple point temperature ([1]; Crystal 2) | Molar enthalpy of transition or fusion ([2]; Crystal 1) | Molar enthalpy of transition or fusion ([2]; Crystal 2) | molar enthalpy ([3]; Crystal 2) | Normal melting temperature ([1]; Crystal) | Molar enthalpy of transition or fusion ([2]; Crystal) | molar enthalpy ([3]; Crystal)
1 | O=C1CCCc2cc(O)ccc21 [6-hydroxy-1-tetralone] | 152.76 ± 0.45 °C | 387.46 ± 0.65 K | 4.54 ± 0.17 kcal/mol | 3.11 ± 0.598 kcal/mol | 28.1 ± 0.669 kcal/mol |  |  | 
2 | O=C1CCCc2c(O)cccc21 [5-hydroxy-1-tetralone] |  |  |  |  |  | 206.91 ± 0.39 °C | 8.05 ± 0.198 kcal/mol | 28.3 ± 0.717 kcal/mol
